Measurements as given in ChEMBL document CHEMBL5465560, “Selectivity Literature for EUbOPEN Chemogenomic Library” (2024).

Assays:
[1] = target: T1, Myosin-IIIb (Homo sapiens) (UniProt Q8WXR4); assay: Selectivity interaction (KinomeScan (DiscoverX)) EUB0000666a MYO3B; conditions: at 10 µM
T1 sequence (whole entry): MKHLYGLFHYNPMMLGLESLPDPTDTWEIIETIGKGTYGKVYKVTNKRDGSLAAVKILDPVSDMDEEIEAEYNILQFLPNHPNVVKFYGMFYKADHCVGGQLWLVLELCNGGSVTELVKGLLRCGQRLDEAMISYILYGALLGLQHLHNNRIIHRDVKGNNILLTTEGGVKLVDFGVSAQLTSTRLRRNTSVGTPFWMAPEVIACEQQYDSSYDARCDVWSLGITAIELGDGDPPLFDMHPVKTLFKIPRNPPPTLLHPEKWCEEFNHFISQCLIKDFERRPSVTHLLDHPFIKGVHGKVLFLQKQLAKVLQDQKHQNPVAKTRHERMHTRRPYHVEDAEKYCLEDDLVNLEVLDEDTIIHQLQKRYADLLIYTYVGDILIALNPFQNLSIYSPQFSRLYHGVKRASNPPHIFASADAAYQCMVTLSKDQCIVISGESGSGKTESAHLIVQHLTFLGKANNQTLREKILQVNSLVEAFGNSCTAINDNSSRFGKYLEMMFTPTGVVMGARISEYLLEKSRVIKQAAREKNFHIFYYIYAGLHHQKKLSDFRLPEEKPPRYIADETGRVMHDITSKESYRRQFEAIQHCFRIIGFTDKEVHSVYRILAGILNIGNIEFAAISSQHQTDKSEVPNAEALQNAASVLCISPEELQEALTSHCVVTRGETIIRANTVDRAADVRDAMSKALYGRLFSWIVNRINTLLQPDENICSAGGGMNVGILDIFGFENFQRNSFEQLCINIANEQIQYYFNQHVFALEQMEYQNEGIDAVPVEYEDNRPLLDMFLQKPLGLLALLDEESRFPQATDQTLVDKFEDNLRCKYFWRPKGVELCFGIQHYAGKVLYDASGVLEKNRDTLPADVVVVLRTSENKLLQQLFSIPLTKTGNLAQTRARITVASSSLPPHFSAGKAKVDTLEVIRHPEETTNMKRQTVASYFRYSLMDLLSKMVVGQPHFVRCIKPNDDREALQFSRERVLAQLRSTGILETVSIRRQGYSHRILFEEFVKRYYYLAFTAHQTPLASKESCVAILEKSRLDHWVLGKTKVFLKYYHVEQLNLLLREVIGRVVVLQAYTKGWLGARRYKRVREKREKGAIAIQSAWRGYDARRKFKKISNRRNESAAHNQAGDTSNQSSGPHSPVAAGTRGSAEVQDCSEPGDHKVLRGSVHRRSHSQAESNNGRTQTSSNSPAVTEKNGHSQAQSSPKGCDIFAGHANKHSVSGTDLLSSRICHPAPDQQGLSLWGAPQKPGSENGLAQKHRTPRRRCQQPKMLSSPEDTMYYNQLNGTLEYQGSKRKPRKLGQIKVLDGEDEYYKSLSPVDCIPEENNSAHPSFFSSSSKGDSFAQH

[2] = target: T2, MAP/microtubule affinity-regulating kinase 4 (Homo sapiens) (UniProt Q96L34); assay: Selectivity interaction (KinomeScan (DiscoverX)) EUB0000595a MARK4; conditions: at 10 µM
T2 sequence (whole entry): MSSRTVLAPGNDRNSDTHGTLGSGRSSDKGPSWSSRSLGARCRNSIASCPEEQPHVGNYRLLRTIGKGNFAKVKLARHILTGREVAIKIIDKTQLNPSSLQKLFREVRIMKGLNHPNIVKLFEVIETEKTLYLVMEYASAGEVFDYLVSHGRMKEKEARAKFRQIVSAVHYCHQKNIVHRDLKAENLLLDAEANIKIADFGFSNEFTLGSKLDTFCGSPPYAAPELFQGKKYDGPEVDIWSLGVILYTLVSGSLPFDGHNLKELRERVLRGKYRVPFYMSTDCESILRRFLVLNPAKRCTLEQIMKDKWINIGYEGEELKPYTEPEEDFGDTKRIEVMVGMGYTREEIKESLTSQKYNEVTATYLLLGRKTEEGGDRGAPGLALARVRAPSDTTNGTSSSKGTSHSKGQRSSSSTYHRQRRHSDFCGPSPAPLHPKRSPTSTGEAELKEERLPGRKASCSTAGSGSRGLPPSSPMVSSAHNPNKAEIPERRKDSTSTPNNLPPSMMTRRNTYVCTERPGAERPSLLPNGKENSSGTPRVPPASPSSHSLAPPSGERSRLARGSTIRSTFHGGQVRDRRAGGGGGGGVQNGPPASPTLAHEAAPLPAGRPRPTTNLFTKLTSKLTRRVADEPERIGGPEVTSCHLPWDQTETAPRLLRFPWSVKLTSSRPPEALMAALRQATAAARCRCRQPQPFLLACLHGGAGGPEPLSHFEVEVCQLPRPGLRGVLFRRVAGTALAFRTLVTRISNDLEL

[3] = target: T3, Dual specificity mitogen-activated protein kinase kinase 3 (Homo sapiens) (UniProt P46734); assay: Selectivity interaction (Ambit KINOMEscan and KiNATiv profiling in Jurkat cells) EUB0000090b MAP2K3; assay type: cell-based; conditions: at 1 µM
T3 sequence (whole entry): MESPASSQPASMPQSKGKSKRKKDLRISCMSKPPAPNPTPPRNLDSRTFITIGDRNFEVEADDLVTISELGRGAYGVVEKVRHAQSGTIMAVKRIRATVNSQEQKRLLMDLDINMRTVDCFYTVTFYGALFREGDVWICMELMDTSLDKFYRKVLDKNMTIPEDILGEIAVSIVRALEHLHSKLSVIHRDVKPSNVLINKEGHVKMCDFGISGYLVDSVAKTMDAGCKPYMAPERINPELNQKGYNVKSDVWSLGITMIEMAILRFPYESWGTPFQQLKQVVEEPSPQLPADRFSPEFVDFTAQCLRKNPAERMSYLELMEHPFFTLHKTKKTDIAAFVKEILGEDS

[4] = target: 5'-AMP-activated protein kinase catalytic subunit alpha-2 (Homo sapiens) (UniProt P54646); assay: Selectivity interaction (Ambit KINOMEscan and KiNATiv profiling in Jurkat cells) EUB0000090b PRKAA2; assay type: cell-based; conditions: at 1 µM
5'-AMP-activated protein kinase catalytic subunit alpha-2 (Homo sapiens), sequence (P54646 whole entry, looked up): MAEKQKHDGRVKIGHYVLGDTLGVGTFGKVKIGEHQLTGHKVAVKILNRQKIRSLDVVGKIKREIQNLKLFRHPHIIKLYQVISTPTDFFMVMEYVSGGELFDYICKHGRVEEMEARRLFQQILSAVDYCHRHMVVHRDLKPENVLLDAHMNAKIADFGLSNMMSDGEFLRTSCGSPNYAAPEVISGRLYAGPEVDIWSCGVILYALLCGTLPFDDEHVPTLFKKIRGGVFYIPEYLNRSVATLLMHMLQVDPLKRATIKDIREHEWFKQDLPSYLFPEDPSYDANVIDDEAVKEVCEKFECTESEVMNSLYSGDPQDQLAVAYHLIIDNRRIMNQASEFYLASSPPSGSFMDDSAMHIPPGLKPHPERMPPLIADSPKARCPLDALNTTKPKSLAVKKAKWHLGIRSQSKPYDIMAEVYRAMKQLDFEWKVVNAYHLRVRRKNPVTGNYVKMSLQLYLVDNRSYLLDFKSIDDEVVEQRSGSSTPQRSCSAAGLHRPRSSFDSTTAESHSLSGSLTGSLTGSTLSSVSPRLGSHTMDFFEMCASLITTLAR

[5] = target: Tyrosine-protein kinase JAK1 (Homo sapiens, UniProt P23458); assay: Selectivity interaction (Ambit KINOMEscan and KiNATiv profiling in Jurkat cells) EUB0000090b JAK1; assay type: cell-based; conditions: at 1 µM
Tyrosine-protein kinase JAK1, sequence (P23458 whole entry, canonical isoform): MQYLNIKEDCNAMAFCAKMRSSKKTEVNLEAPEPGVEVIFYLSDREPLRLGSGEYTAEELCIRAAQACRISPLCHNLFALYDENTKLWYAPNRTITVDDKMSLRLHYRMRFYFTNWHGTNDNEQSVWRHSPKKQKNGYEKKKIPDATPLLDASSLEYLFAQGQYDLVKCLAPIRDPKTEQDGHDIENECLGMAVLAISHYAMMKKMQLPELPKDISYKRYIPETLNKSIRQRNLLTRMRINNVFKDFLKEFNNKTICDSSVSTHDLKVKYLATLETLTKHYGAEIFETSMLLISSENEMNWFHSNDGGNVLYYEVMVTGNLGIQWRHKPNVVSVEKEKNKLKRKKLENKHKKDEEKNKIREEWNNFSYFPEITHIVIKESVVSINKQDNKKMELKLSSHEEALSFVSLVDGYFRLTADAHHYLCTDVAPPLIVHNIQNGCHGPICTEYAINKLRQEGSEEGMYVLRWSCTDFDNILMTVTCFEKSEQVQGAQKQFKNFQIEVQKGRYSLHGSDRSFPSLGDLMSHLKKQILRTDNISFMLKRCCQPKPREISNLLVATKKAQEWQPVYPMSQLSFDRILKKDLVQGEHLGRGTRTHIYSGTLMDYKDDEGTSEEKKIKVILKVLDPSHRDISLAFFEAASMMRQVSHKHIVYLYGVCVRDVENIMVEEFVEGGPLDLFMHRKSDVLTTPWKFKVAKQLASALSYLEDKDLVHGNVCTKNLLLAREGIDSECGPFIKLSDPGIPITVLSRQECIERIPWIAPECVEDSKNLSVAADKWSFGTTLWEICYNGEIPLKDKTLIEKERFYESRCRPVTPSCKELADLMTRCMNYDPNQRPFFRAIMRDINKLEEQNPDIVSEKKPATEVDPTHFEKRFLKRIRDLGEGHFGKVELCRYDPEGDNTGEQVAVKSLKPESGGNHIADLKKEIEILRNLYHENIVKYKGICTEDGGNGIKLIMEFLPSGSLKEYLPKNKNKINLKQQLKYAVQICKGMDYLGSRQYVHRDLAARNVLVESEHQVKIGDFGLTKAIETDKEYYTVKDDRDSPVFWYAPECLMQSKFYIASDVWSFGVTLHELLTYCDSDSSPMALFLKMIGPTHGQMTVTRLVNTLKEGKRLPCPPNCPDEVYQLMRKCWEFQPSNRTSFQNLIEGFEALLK

[6] = target: Phosphatidylinositol 4,5-bisphosphate 3-kinase catalytic subunit gamma isoform (Homo sapiens) (UniProt P48736); assay: Selectivity interaction (KinomeScan (DiscoverX)) EUB0000045b PIK3CG; conditions: at 1 µM
Phosphatidylinositol 4,5-bisphosphate 3-kinase catalytic subunit gamma isoform (Homo sapiens), sequence (P48736 whole entry, looked up, canonical isoform): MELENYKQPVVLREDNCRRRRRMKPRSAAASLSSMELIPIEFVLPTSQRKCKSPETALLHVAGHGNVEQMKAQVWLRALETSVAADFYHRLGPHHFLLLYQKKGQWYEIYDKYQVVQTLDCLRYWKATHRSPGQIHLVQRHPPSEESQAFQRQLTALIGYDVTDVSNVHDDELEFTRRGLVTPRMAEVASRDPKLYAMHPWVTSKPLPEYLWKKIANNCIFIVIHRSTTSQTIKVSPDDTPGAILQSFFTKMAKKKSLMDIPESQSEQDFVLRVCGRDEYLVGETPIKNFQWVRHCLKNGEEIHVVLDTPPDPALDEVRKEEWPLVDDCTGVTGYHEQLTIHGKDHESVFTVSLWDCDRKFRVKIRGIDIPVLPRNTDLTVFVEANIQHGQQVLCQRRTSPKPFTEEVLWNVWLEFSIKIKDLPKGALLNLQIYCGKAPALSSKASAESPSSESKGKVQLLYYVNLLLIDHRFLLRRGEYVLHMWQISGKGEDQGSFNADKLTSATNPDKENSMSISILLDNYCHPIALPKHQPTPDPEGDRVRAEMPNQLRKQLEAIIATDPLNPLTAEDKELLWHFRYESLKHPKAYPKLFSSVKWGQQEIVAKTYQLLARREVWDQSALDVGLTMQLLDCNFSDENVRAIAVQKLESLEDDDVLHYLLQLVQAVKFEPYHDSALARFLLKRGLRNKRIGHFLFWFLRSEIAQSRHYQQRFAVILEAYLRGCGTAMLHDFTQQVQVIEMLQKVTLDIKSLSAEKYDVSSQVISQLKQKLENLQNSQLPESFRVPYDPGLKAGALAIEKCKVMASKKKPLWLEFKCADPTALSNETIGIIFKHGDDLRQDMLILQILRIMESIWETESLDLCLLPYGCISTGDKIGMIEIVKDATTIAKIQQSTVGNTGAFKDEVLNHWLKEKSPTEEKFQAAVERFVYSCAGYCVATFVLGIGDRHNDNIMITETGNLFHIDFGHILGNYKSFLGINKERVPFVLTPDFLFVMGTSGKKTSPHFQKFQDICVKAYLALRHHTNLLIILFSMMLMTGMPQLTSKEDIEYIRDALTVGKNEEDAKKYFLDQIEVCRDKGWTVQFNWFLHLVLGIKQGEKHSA

[7] = target: Myosin light chain kinase, smooth muscle (Homo sapiens, UniProt Q15746); assay: Selectivity interaction (KinomeScan (DiscoverX)) EUB0000655a MYLK; conditions: at 10 µM
[8] = target: Macrophage-stimulating protein receptor (Homo sapiens, UniProt Q04912); assay: Selectivity interaction (KinomeScan (DiscoverX)) EUB0000655a MST1R; conditions: at 10 µM
Macrophage-stimulating protein receptor, sequence (Q04912 25-304 limits assumed): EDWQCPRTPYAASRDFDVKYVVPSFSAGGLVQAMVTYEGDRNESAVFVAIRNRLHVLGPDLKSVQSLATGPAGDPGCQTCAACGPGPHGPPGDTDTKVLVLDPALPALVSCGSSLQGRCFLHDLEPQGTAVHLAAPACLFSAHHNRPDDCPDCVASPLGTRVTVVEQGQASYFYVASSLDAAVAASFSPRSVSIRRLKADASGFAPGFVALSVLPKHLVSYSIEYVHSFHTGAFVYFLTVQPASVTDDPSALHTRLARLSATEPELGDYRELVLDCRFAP
Macrophage-stimulating protein receptor, sequence (Q04912 310-1400 limits assumed): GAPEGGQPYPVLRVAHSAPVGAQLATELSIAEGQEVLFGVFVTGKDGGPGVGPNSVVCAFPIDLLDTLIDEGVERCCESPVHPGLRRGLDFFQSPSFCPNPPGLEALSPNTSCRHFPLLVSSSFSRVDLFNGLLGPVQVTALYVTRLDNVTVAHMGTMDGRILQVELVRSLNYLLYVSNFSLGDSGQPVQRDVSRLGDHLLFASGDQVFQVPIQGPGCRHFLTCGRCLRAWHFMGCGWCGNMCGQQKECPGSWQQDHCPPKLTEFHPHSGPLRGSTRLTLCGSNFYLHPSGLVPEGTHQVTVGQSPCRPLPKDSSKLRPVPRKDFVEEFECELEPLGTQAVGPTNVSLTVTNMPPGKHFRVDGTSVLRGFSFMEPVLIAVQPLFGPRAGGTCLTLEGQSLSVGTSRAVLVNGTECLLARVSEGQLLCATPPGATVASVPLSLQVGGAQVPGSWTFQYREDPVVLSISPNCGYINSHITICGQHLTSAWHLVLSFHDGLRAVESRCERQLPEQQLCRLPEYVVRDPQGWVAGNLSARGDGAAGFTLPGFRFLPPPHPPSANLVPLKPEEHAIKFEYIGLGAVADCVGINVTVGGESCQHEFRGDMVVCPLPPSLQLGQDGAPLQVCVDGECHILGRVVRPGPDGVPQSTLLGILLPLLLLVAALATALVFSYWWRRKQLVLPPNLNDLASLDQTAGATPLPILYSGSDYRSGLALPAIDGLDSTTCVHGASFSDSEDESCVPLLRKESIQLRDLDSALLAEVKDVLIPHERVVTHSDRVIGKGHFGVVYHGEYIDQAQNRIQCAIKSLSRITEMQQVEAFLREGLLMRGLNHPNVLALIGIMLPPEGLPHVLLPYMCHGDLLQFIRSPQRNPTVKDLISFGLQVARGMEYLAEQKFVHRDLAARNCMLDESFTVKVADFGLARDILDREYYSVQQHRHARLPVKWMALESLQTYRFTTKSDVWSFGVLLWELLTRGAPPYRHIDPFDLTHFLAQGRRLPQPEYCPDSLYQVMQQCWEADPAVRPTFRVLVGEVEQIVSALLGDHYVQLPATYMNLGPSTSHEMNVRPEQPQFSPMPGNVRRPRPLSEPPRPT

[9] = target: Phosphatidylinositol 4-phosphate 3-kinase C2 domain-containing subunit beta (Homo sapiens) (UniProt O00750); assay: Selectivity interaction (KinomeScan (DiscoverX)) EUB0000655a PIK3C2B; conditions: at 10 µM

Compound: O=C(NOC[C@H](O)CO)c1ccc(F)c(F)c1Nc1ccc(I)cc1F
- % of control [1]: 99%

Compound: COCC(=O)NC/C=C/c1ccc2ncnc(Nc3ccc(Oc4ccc(C)nc4)c(C)c3)c2c1 [CP-724714]
- % of control [2]: 100%

Compound: CN(C)C/C=C/C(=O)Nc1ccc(C(=O)N2CCCC(Nc3ncc(Cl)c(-c4c[nH]c5ccccc45)n3)C2)cc1 (centres undefined)
- % of control [3]: 51%
- % of control [4]: 98%
- % of control [5]: 86%

Compound: C=CC(=O)Nc1cc(-n2c(=O)ccc3cnc4ccc(-c5ccc(NS(C)(=O)=O)cc5)cc4c32)ccc1C
- % of control [6]: 2.8%

Compound: CN(C)CCOc1ccc(-c2nc(-c3ccncc3)c(-c3ccc4c(c3)CC/C4=N\O)[nH]2)cc1
- % of control [7]: 98%
- % of control [8]: 100%
- % of control [9]: 64%
